# In patent US10966911B2, “Melanin decomposition inhibitor” (KAO CORPORATION, priority 2016, dated 2021):
# Legend:
# LC3-II = test: Autophagy activity of epidermal keratinocytes (LC3-II accumulation with chloroquine diphosphate, Western blotting); format: cell-based, human; conditions: proguanil 0.3, 1, 3, 10 or 30 μM in presence of 10 μM chloroquine diphosphate, FIG. 18
# Description: Normal human neonatal foreskin-derived epidermal keratinocytes (Human Epidermal Keratinocytes, neonatal (HEKn) lightly; keratinocytes) were purchased from Thermo Fisher Scientific. […] The keratinocytes were cultured in a grow medium (Epilife) epidermal keratinocytes (Thermo Fisher Scientific) supplemented with a growth additive (Humedia-KG) (manufactured by Kurabo Industries Ltd.) at 37° C. in 5 vol % CO2 atmospheric conditions.
# Keratinocytes were seeded in a 6-well plate at a density of 1.5×10^5 cells/well (2 mL/well). The following day, proguanil was added so as to obtain a final concentration of 0.3, 1, 3, 10 or 30 μM. Culture was performed at 37° C. in 5 vol % CO2 atmospheric conditions. As a control, the same amount of DMSO was added. […] The following day, Chloroquine diphosphate attached to LC3B Antibody Kit for Autophagy (Thermo Fisher Scientific) was added so as to obtain a final concentration of 10 μM. Culture was performed at 37° C. in 5 vol % CO2 atmospheric conditions for 24 hours. After completion of the culture, SDS-PAGE and western blotting were performed in accordance with the method as mentioned above. As a primary antibody, anti-LC3B (1:1000) attached to the kit mentioned above was used. […] Expression of β-actin as the internal standard was evaluated by using monoclonal antibody specific for β-actin (Sigma-Aldrich, 1:5000).
# [1] = system: dopa oxidase activity of melanocytes; test: Dopa oxidase activity of melanocytes in keratinocyte-melanocyte co-culture system; format: cell-based, human; conditions: melanocytes (lightly and darkly), proguanil 0.1-1000 μM, 4 days, versus DMSO, FIGS. 16A, 16B
# Description: Melanocytes (lightly and darkly) were seeded in 96-well plates at a cell density of 2×10^4 cells/well (100 μL/well). […] Two days later, proguanil was added at a final concentration of 0.1, 0.3, 1, 3, 10, 30, 100, 300 or 1000 μM and culture was performed at 37° C. in 5 vol % CO2 atmospheric conditions for 4 days. As a control, the same amount of DMSO was added. After completion of culture, the whole medium was replaced (100 μL/well), a reagent, alamarBlue (Bio-Rad AbD Serotec Limited) was added so as to obtain a ratio of 10 μL/well. Incubation was carried out at 37° C. in 5 vol % CO2 atmospheric conditions for one hour. Thereafter, fluorescence intensity of the medium was measured (Ex544 nm/Em590 nm) to evaluate cellular respiratory chain (growth) activity. […] The cells were lysed at 4° C. over 2 hours and dopa oxidase activity was measured. The activity measurement was performed by the following method based on the […] method (Winder A. et al., 1991, Eur. J. Biochem. 198: 317-326): to individual wells containing a cell lysate, the Assay Buffer (80 μL) as mentioned above, an aqueous 20.7 mM MBTH (3-methyl-2-benzothiazolinone hydrazone) solution (60 μL) and an aqueous 5 mM L-DOPA (L-dihydroxyphenylalanine) (40 μL) solution serving as a substrate were added, a reaction was performed at 37° C. for 30 minutes and the absorbance at a wavelength of 505 nm was measured. […]
smiles,measurement,setting,value
"[H]/N=C(\N/C(=N/[H])Nc1ccc(Cl)cc1)NC(C)C [proguanil, 1-(p-chlorophenyl)-5-isopropyl biguanide]",accumulation of LC3-II,LC3-II,the accumulation was reduced by proguanil in a concentration-dependent manner
same,dopa oxidase activity,[1],does not accelerate dopa oxidase activity
